Measured values: patent US9102678B2, “Compounds and methods for inhibiting mitotic progression” (Millennium Pharmaceuticals, Inc., priority 2004, dated 2015)

What follows are compounds tested against T1, recombinant murine Aurora A enzyme (Mus musculus, UniProt P97477) (assay: Aurora A DELFIA Kinase Assay). Details: mouse Aurora A, 250 μM ATP; threshold less than or equal to 100 nM; read-out: IC50.
T1 construct: hexahistidine (His6) (N); made in house; host or cells: insect cells, baculovirus (Bac-to-Bac, Invitrogen)
Format: biochemical
Excerpt: Recombinant mouse Aurora A with an amino-terminus hexahistidine tag (His-Aurora A) was expressed using a standard baculovirus vector and insect cell expression system (Bac-to-Bac®, Invitrogen).
Soluble, recombinant mouse Aurora A was purified from insect cells using Ni-NTA agarose (Qiagen) as described by the manufacturer and further purified over an S75 size exclusion column (Amersham Pharmacia Biotech).
Aurora A DELFIA® Kinase Assay
The enzymatic reaction mixture, with and without Aurora inhibitors, was incubated for 15 minutes at room temperature before termination with 100 μL of stop buffer (1% BSA, 0.05% Surfact-AMPS-20, and 100 mM EDTA). A total of 100 μL of the enzyme reaction mixture was transferred to wells of a Neutravidin-coated 96-well plate (Pierce) and incubated at room temperature for 30 minutes. The wells were washed with wash buffer (25 mM Tris, 150 mM sodium chloride, and 0.1% Tween 20) and incubated for 1 hour with 100 μL of antibody reaction mixture containing 1% BSA, 0.05% Surfact-AMPS-20, anti-phospho-PKA rabbit polyclonal antibody (1:2000, New England Biolabs), and europium labeled anti-rabbit IgG (1:2000, Perkin Elmer). The wells were washed and then the bound europium was liberated using 100 μL of Enhancement Solution (Perkin Elmer). Quantification of europium was done using a Wallac™ EnVision (Perkin Elmer).

T1 sequence (P97477 whole entry): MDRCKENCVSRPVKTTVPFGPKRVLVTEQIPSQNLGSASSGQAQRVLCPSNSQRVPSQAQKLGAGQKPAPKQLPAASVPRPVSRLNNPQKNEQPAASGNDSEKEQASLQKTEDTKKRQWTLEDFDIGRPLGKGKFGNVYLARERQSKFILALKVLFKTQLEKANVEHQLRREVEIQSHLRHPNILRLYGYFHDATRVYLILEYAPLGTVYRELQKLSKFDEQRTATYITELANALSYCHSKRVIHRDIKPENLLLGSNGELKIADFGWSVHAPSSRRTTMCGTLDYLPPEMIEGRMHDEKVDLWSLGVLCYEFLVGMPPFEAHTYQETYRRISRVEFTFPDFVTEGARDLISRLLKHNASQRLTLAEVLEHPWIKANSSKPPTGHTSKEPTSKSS

| SMILES | IC50 [nM] |
| --- | --- |
| CNCCNC(=O)c1ccc(Nc2ncc3c(n2)-c2ccc(Cl)cc2C(c2ccccc2F)=NC3)cc1 [Compound I-1, 4-[9-Chloro-7-(2-fluoro-phenyl)-5H-benzo[c]pyrimido[4,5-e]azepin-2-ylamino]-N-(2-methylamino-ethyl)-benzamide] | ≤ 100 |
| CN(CCN)C(=O)c1ccc(Nc2ncc3c(n2)-c2ccc(Cl)cc2C(c2ccccc2F)=NC3)cc1 [Compound I-2, N-(2-Amino-ethyl)-4-[9-chloro-7-(2-fluoro-phenyl)-5H-benzo[c]pyrimido[4,5-e]azepin-2-ylamino]-N-methyl-benzamide] | ≤ 100 |
| CNCCN(C)C(=O)c1ccc(Nc2ncc3c(n2)-c2ccc(Cl)cc2C(c2ccccc2F)=NC3)cc1 [Compound I-3, 4-[9-Chloro-7-(2-fluoro-phenyl)-5H-benzo[c]pyrimido[4,5-e]azepin-2-ylamino]-N-methyl-N-(2-methylamino-ethyl)-benzamide] | ≤ 100 |
| CN(C)CCN(C)C(=O)c1ccc(Nc2ncc3c(n2)-c2ccc(Cl)cc2C(c2ccccc2F)=NC3)cc1 [Compound I-5, 4-[9-Chloro-7-(2-fluoro-phenyl)-5H-benzo[c]pyrimido[4,5-e]azepin-2-ylamino]-N-(2-dimethylamino-ethyl)-N-methyl-benzamide] | ≤ 100 |
| CN(C)CCCNC(=O)c1ccc(Nc2ncc3c(n2)-c2ccc(Cl)cc2C(c2ccccc2F)=NC3)cc1 [Compound I-6, 4-[9-Chloro-7-(2-fluoro-phenyl)-5H-benzo[c]pyrimido[4,5-e]azepin-2-ylamino]-N-(3-dimethylamino-propyl)-benzamide] | ≤ 100 |
| CN(C)CCCN(C)C(=O)c1ccc(Nc2ncc3c(n2)-c2ccc(Cl)cc2C(c2ccccc2F)=NC3)cc1 [Compound I-7, 4-[9-Chloro-7-(2-fluoro-phenyl)-5H-benzo[c]pyrimido[4,5-e]azepin-2-ylamino]-N-(3-dimethylamino-propyl)-N-methyl-benzamide] | ≤ 100 |
| COc1ccccc1C1=NCc2cnc(Nc3ccc(C(=O)N4CCN(C)CC4)cc3)nc2-c2ccc(Cl)cc21 [Compound I-12, {4-[9-Chloro-7-(2-methoxy-phenyl)-5H-benzo[c]pyrimido[4,5-e]azepin-2-ylamino]-phenyl}-(4-methyl-piperazin-1-yl)-methanone] | ≤ 100 |
| CN1CCN(C(=O)Cc2cccc(Nc3ncc4c(n3)-c3ccc(Cl)cc3C(c3ccccc3F)=NC4)c2)CC1 [Compound I-15, 2-{3-[9-Chloro-7-(2-fluoro-phenyl)-5H-benzo[c]pyrimido[4,5-e]azepin-2-ylamino]-phenyl}-1-(4-methyl-piperazin-1-yl)-ethanone] | ≤ 100 |
| O=C(NC1CCNCC1)c1ccc(Nc2ncc3c(n2)-c2ccc(Cl)cc2C(c2ccccc2F)=NC3)cc1 [Compound I-16, 4-[9-Chloro-7-(2-fluoro-phenyl)-5H-benzo[c]pyrimido[4,5-e]azepin-2-ylamino]-N-piperidin-4-yl-benzamide] | ≤ 100 |
| CN1CCN(CCCNC(=O)c2ccc(Nc3ncc4c(n3)-c3ccc(Cl)cc3C(c3ccccc3F)=NC4)cc2)CC1 [Compound I-19, 4-[9-Chloro-7-(2-fluoro-phenyl)-5H-benzo[c]pyrimido[4,5-e]azepin-2-ylamino]-N-[3-(4-methyl-piperazin-1-yl)-propyl]-benzamide] | ≤ 100 |
| CN1CCN(CCCNC(=O)c2ccc(Nc3ncc4c(n3)-c3ccc(Cl)cc3C(c3ccccc3Cl)=NC4)cc2)CC1 [Compound I-20, 4-[9-Chloro-7-(2-chloro-phenyl)-5H-benzo[c]pyrimido[4,5-e]azepin-2-ylamino]-N-[3-(4-methyl-piperazin-1-yl)-propyl]-benzamide] | ≤ 100 |
| Cc1ccccc1C1=NCc2cnc(Nc3ccc(C(=O)NCCCN4CCN(C)CC4)cc3)nc2-c2ccc(Cl)cc21 [Compound I-21, 4-(9-Chloro-7-o-tolyl-5H-benzo[c]pyrimido[4,5-e]azepin-2-ylamino)-N-[3-(4-methyl-piperazin-1-yl)-propyl]-benzamide] | ≤ 100 |
| COc1ccccc1C1=NCc2cnc(Nc3ccc(C(=O)NCCCN4CCN(C)CC4)cc3)nc2-c2ccc(Cl)cc21 [Compound I-22, 4-[9-Chloro-7-(2-methoxy-phenyl)-5H-benzo[c]pyrimido[4,5-e]azepin-2-ylamino]-N-[3-(4-methyl-piperazin-1-yl)-propyl]-benzamide] | ≤ 100 |
| Cc1ccc2c(c1)C(c1ccccc1F)=NCc1cnc(Nc3ccc(C(=O)NCCCN4CCN(C)CC4)cc3)nc1-2 [Compound I-24, 4-[7-(2-Fluoro-phenyl)-9-methyl-5H-benzo[c]pyrimido[4,5-e]azepin-2-ylamino]-N-[3-(4-methyl-piperazin-1-yl)-propyl]-benzamide] | ≤ 100 |
| CN1CCN(CCCNC(=O)Cc2cccc(Nc3ncc4c(n3)-c3ccc(Cl)cc3C(c3ccccc3F)=NC4)c2)CC1 [Compound I-25, 2-{3-[9-Chloro-7-(2-fluoro-phenyl)-5H-benzo[c]pyrimido[4,5-e]azepin-2-ylamino]-phenyl}-N-[3-(4-methyl-piperazin-1-yl)-propyl]-acetamide] | ≤ 100 |
| O=C(c1ccc(Nc2ncc3c(n2)-c2ccc(Cl)cc2C(c2ccccc2F)=NC3)cc1)N(CCO)CCO [Compound I-27, 4-[9-Chloro-7-(2-fluoro-phenyl)-5H-benzo[c]pyrimido[4,5-e]azepin-2-ylamino]-N,N-bis-(2-hydroxy-ethyl)-benzamide] | ≤ 100 |
| O=C(c1ccc(Nc2ncc3c(n2)-c2ccc(Cl)cc2C(c2ccccc2Cl)=NC3)cc1)N1CCOCC1 [Compound I-28, {4-[9-Chloro-7-(2-chloro-phenyl)-5H-benzo[c]pyrimido[4,5-e]azepin-2-ylamino]-phenyl}-morpholin-4-yl-methanone] | ≤ 100 |
| O=C(NCCN1CCOCC1)c1ccc(Nc2ncc3c(n2)-c2ccc(Cl)cc2C(c2ccccc2F)=NC3)cc1 [Compound I-29, 4-[9-Chloro-7-(2-fluoro-phenyl)-5H-benzo[c]pyrimido[4,5-e]azepin-2-ylamino]-N-(2-morpholin-4-yl-ethyl)-benzamide] | ≤ 100 |
| O=C(NCCN1CCOCC1)c1ccc(Nc2ncc3c(n2)-c2ccc(Cl)cc2C(c2ccccc2Cl)=NC3)cc1 [Compound I-30, 4-[9-Chloro-7-(2-chloro-phenyl)-5H-benzo[c]pyrimido[4,5-e]azepin-2-ylamino]-N-(2-morpholin-4-yl-ethyl)-benzamide] | ≤ 100 |

Results, then the compound that gave them:

| IC50 [nM] | SMILES |
| --- | --- |
| ≤ 100 | CN(C)CCNC(=O)c1ccc(Nc2ncc3c(n2)-c2ccc(Cl)cc2C(c2ccccc2F)=NC3)cc1 [Compound I-4, 4-[9-Chloro-7-(2-fluoro-phenyl)-5H-benzo[c]pyrimido[4,5-e]azepin-2-ylamino]-N-(2-dimethylamino-ethyl)-benzamide] |
| ≤ 100 | O=C(c1ccc(Nc2ncc3c(n2)-c2ccc(Cl)cc2C(c2ccccc2F)=NC3)cc1)N1CCNCC1 [Compound I-8, {4-[9-Chloro-7-(2-fluoro-phenyl)-5H-benzo[c]pyrimido[4,5-e]azepin-2-ylamino]-phenyl}-piperazin-1-yl-methanone] |
| ≤ 100 | CN1CCN(C(=O)c2ccc(Nc3ncc4c(n3)-c3ccc(Cl)cc3C(c3ccccc3F)=NC4)cc2)CC1 [Compound I-9, {4-[9-Chloro-7-(2-fluoro-phenyl)-5H-benzo[c]pyrimido[4,5-e]azepin-2-ylamino]-phenyl}-(4-methyl-piperazin-1-yl)-methanone] |
| ≤ 100 | CN1CCN(C(=O)c2ccc(Nc3ncc4c(n3)-c3ccc(Cl)cc3C(c3ccccc3Cl)=NC4)cc2)CC1 [Compound I-10, {4-[9-Chloro-7-(2-chloro-phenyl)-5H-benzo[c]pyrimido[4,5-e]azepin-2-ylamino]-phenyl}-(4-methyl-piperazin-1-yl)-methanone] |
| ≤ 100 | Cc1ccccc1C1=NCc2cnc(Nc3ccc(C(=O)N4CCN(C)CC4)cc3)nc2-c2ccc(Cl)cc21 [Compound I-11, [4-(9-Chloro-7-o-tolyl-5H-benzo[c]pyrimido[4,5-e]azepin-2-ylamino)-phenyl]-(4-methyl-piperazin-1-yl)-methanone] |
| ≤ 100 | Cc1ccc2c(c1)C(c1ccccc1F)=NCc1cnc(Nc3ccc(C(=O)N4CCN(C)CC4)cc3)nc1-2 [Compound I-14, {4-[7-(2-Fluoro-phenyl)-9-methyl-5H-benzo[c]pyrimido[4,5-e]azepin-2-ylamino]-phenyl}-(4-methyl-piperazin-1-yl)-methanone] |
| ≤ 100 | NC1CCN(C(=O)c2ccc(Nc3ncc4c(n3)-c3ccc(Cl)cc3C(c3ccccc3F)=NC4)cc2)CC1 [Compound I-17, (4-Amino-piperidin-1-yl)-{4-[9-chloro-7-(2-fluoro-phenyl)-5H-benzo[c]pyrimido[4,5-e]azepin-2-ylamino]-phenyl}-methanone] |
| ≤ 100 | CN(C)C1CCN(C(=O)c2ccc(Nc3ncc4c(n3)-c3ccc(Cl)cc3C(c3ccccc3F)=NC4)cc2)CC1 [Compound I-18, {4-[9-Chloro-7-(2-fluoro-phenyl)-5H-benzo[c]pyrimido[4,5-e]azepin-2-ylamino]-phenyl}-(4-dimethylamino-piperidin-1-yl)-methanone] |
| ≤ 100 | O=C(c1ccc(Nc2ncc3c(n2)-c2ccc(Cl)cc2C(c2ccccc2F)=NC3)cc1)N1CCOCC1 [Compound I-26, {4-[9-Chloro-7-(2-fluoro-phenyl)-5H-benzo[c]pyrimido[4,5-e]azepin-2-ylamino]-phenyl}-morpholin-4-yl-methanone] |
